Experimental data published in ChEMBL document CHEMBL1201862, “PubChem BioAssay data set” (2004).
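Method: 48-hour compound exposure of cells in 96-well plates, five concentrations, linear interpolation of endpoints. GI50 = concentration required for 50% inhibition of growth.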 Active and inactive are the calls of the source. No stated cut-off is given here; in the data, active = GI50 up to about 1.1 µM and inactive = higher.

Key:
Assay in all cases: growth of human tumour cells (NCI), 48 h
MDA-N = test system: MDA-N
Hs-578T = test system: Hs-578T
PC-3 = test system: PC-3
BT-549 = test system: BT-549
T47D = test system: T47D
MDA-MB-435 = test system: MDA-MB-435
DU-145 = test system: DU-145
DLD-1 = test system: DLD-1
RXF 631 = test system: RXF 631

Measured: GI50

CSC1=C(SC)C(=O)c2cn(C)c(=O)cc2C1=O
inactive: MDA-N 1.64 µM | Hs-578T 7.67 µM | PC-3 9.55 µM | BT-549 2.14 µM | T47D 2.05 µM | MDA-MB-435 1.79 µM | DU-145 8.47 µM

CCOC(=O)CN1CCS/C1=N/C#N
inactive: DLD-1 > 100 µM

O=C(O)c1cccc(OCCO)c1
inactive: MDA-N > 100 µM | Hs-578T > 100 µM | PC-3 > 100 µM | BT-549 > 100 µM | T47D > 100 µM | MDA-MB-435 > 100 µM | DU-145 > 100 µM

Cc1ccc(C=C(C(=O)O)C(=O)O)o1
inactive: MDA-N > 100 µM | Hs-578T > 100 µM | PC-3 > 100 µM | BT-549 > 100 µM | MDA-MB-435 > 100 µM | DU-145 > 100 µM

O=NN(CCCl)C(=O)Nc1ccc(Cl)c(Cl)c1
inactive: DLD-1 53.5 µM

CSCCC(NOC(=O)Cc1ccccc1)P(=O)(O)c1ccccc1 (centres undefined)
inactive: MDA-N > 100 µM | Hs-578T > 100 µM | PC-3 > 100 µM | T47D > 100 µM | MDA-MB-435 > 100 µM | DU-145 > 100 µM

C1CNCCNCCNCCN1
inactive: DLD-1 41.3 µM

CC(C)(C)[Si](C)(C)OCCCC#CCO
inactive: DLD-1 > 100 µM | RXF 631 > 100 µM

O=C1OC2CC=CC1C2 (centres undefined)
inactive: DLD-1 > 100 µM

CC1=CC(O)C(O)C2(C)C1CC1OC(=O)C(O)C3C(C)C(O)C4(O)OCC13C42 (centres undefined)
inactive: DLD-1 135 µM

Clc1ccc(C2SCc3nc4ccccc4n32)cc1 (centres undefined)
inactive: RXF 631 29.2 µM

Oc1nc2c(c(-c3ccccc3Cl)n1)COC/C2=C\c1ccccc1Cl
inactive: MDA-N > 100 µM | Hs-578T > 100 µM | PC-3 > 100 µM | BT-549 > 100 µM | T47D > 100 µM | MDA-MB-435 > 100 µM | DU-145 > 100 µM

CC(=O)NC(CCCCNC(=O)OC(C)(C)C)C(=O)O (centres undefined)
inactive: MDA-N > 100 µM | PC-3 > 100 µM | T47D > 100 µM | MDA-MB-435 > 100 µM | DU-145 > 100 µM

COc1ccc2c(c1)c1c(n2CCN2CCCCC2)-c2cccc(OC)c2CC1
inactive: MDA-N 16.2 µM | Hs-578T 19.5 µM | PC-3 12.7 µM | BT-549 13.9 µM | T47D 16.3 µM | MDA-MB-435 14.7 µM | DU-145 32 µM

Cc1cn(C2CC(O)C(Cn3cc(Cn4nc(Br)c(=O)[nH]c4=O)nn3)O2)c(=O)[nH]c1=O (centres undefined)
inactive: MDA-N > 100 µM | Hs-578T > 100 µM | PC-3 > 100 µM | BT-549 > 100 µM | T47D > 100 µM | MDA-MB-435 > 100 µM | DU-145 > 100 µM

Nc1ncnc2c1nnn2C1OC(CO)C(O)C1O (centres undefined)
inactive: DLD-1 1.36 µM

Nc1nc(=O)[nH]cc1F [FLUCYTOSINE]
inactive: MDA-N > 100 µM | Hs-578T > 100 µM | PC-3 > 100 µM | BT-549 > 100 µM | T47D > 100 µM | MDA-MB-435 > 100 µM | DU-145 > 100 µM

CCNC(=O)C(C)C1CCC2(C)C=CC(=O)C(C)=C2C1O (centres undefined)
inactive: DLD-1 > 100 µM

CC[C@]12C=CCN3CC[C@@]4(c5ccc(OC)cc5N(C)[C@H]4[C@@](O)(C(=O)OC)[C@@H]1OC(C)=O)[C@@H]32
inactive: DLD-1 > 200 µM

CC(=O)Nc1ccc2oc(=O)c3ccccc3c2c1
inactive: MDA-N > 100 µM | Hs-578T > 100 µM | PC-3 > 100 µM | BT-549 > 100 µM | T47D > 100 µM | MDA-MB-435 > 100 µM | DU-145 > 100 µM

COc1ccc(C[C@H](N)C(=O)N2C[C@@H](CO)C[C@@H](n3cnc4c(N(C)C)ncnc43)C2)cc1
inactive: DLD-1 > 100 µM

COc1cc(C=O)cc(O)c1O
inactive: DLD-1 > 100 µM
